Publication PMC11062922 (Nature Chemical Biology, 2023)

Key:
GRK6 = molecular target: T1, GRK6 (Homo sapiens, UniProt P43250); experiment: Kinobeads two-dose competition binding: GRK6; conditions: target GRK6
T1 construct: endogenous in cells

AKT1 = molecular target: T2, AKT1 (Homo sapiens, UniProt P31749); experiment: Kinobeads competition binding: AKT1; conditions: target AKT1
T2 construct: endogenous in cells
Description: Supplement 41589_2023_1459_MOESM4_ESM.xlsx, sheet "CATDS matrix" | column: AKT1

ATR = experiment: Kinobeads competition binding: ATR; design: species or system human; conditions: target ATR
CAMK2B = molecular target: T3, CAMK2B (Homo sapiens, UniProt Q13554); experiment: Kinobeads competition binding: CAMK2B; conditions: target CAMK2B
T3 construct: endogenous in cells
Description: Supplement 41589_2023_1459_MOESM4_ESM.xlsx, sheet "CATDS matrix" | column: CAMK2B

CAMK2D = molecular target: T4, CAMK2D (Homo sapiens, UniProt Q13557); experiment: Kinobeads competition binding: CAMK2D; conditions: target CAMK2D;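 further: selectivity score: engagement of this protein divided by summed engagement of all targets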
T4 construct: endogenous in cells
Description: Supplement 41589_2023_1459_MOESM4_ESM.xlsx, sheet "CATDS matrix" | column: CAMK2D

CDC42 = experiment: Kinobeads competition binding: CDC42; design: species or system human; conditions: target CDC42
CDC42BPA = experiment: Kinobeads competition binding: CDC42BPA; design: species or system human; conditions: target CDC42BPA;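 further: selectivity score: engagement of this protein divided by summed engagement of all targets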
CDC42BPG = experiment: Kinobeads competition binding: CDC42BPG; design: species or system human; conditions: target CDC42BPG
CDKL5 = molecular target: T5, CDKL5 (Homo sapiens, UniProt O76039); experiment: Kinobeads competition binding: CDKL5; conditions: target CDKL5
T5 construct: endogenous in cells
T5 sequence (O76039 1-960): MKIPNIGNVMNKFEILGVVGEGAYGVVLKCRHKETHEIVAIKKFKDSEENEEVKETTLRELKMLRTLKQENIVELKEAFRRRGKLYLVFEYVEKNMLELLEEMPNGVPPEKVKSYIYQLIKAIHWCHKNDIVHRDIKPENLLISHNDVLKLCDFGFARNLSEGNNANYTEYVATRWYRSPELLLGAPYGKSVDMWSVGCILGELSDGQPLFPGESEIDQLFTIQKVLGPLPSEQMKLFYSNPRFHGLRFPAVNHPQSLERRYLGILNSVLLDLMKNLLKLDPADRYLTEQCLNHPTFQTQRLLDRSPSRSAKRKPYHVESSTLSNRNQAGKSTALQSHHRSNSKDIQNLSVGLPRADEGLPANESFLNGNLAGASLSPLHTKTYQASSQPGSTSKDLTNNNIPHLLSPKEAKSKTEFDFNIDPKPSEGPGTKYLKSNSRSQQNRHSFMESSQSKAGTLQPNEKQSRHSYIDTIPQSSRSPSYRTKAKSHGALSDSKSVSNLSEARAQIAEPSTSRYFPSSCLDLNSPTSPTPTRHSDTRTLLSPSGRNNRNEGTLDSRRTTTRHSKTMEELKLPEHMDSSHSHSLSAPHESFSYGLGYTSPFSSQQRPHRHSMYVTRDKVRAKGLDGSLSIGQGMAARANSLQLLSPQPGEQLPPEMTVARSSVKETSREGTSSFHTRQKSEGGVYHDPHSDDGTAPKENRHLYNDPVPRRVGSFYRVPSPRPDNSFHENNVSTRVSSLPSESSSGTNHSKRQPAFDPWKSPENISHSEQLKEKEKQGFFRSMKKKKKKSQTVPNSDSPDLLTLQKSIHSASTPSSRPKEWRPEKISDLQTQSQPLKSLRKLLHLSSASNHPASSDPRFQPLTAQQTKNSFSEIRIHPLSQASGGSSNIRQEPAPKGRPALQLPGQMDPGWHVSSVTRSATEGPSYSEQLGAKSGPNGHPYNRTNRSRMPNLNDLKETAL
Description: Supplement 41589_2023_1459_MOESM4_ESM.xlsx, sheet "CATDS matrix" | column: CDKL5

CLK3 = experiment: Kinobeads competition binding: CLK3; design: species or system human; conditions: target CLK3
CSNK1E = molecular target: T6, CSNK1E (Homo sapiens, UniProt P49674); experiment: Kinobeads competition binding: CSNK1E; conditions: target CSNK1E
T6 construct: endogenous in cells

CSNK1G1 = experiment: Kinobeads competition binding: CSNK1G1; design: species or system human; conditions: target CSNK1G1;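 further: share of total target engagement due to this protein at one drug concentration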
EIF2AK1 = experiment: Kinobeads competition binding: EIF2AK1; design: species or system human; conditions: target EIF2AK1;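 further: share of total target engagement due to this protein at one drug concentration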
MAP2K2 = experiment: Kinobeads competition binding: MAP2K2; design: species or system human; conditions: target MAP2K2
MAP3K12 = experiment: Kinobeads competition binding: MAP3K12; design: species or system human; conditions: target MAP3K12
MAP4K5 = experiment: Kinobeads competition binding: MAP4K5; design: species or system human; conditions: target MAP4K5
MAPK10 = experiment: Kinobeads competition binding: MAPK10; design: species or system human; conditions: target MAPK10
MAPK3 = experiment: Kinobeads competition binding: MAPK3; design: species or system human; conditions: target MAPK3
MST1R = experiment: Kinobeads competition binding: MST1R; design: species or system human; conditions: target MST1R;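 further: selectivity score: engagement of this protein divided by summed engagement of all targets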
PDXK = molecular target: T7, PDXK (Homo sapiens, UniProt O00764); experiment: Kinobeads competition binding: PDXK; conditions: target PDXK;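 further: share of total target engagement due to this protein at one drug concentration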
T7 construct: a mixture of lysates from five cancer cell lines; endogenous in cells
T7 sequence (O00764 1-312): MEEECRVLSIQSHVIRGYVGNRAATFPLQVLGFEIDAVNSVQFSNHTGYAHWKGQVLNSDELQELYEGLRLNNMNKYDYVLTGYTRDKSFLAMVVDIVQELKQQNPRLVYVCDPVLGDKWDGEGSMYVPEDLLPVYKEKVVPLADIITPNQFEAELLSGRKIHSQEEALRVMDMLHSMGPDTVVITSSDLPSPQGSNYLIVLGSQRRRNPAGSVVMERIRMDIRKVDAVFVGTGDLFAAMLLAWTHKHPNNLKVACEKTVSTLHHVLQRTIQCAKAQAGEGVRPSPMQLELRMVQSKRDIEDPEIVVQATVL
Description: Supplement 41589_2023_1459_MOESM4_ESM.xlsx, sheet "CATDS matrix" | column: PDXK

PIK3C2A = experiment: Kinobeads competition binding: PIK3C2A; design: species or system human; conditions: target PIK3C2A;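 further: share of all-target engagement taken by this protein at its own Kdapp concentration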
PIK3CG = molecular target: T8, PIK3CG (Homo sapiens, UniProt P48736); experiment: Kinobeads competition binding: PIK3CG; conditions: target PIK3CG;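 further: selectivity score: engagement of this protein divided by summed engagement of all targets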
T8 construct: endogenous in cells
Description: Supplement 41589_2023_1459_MOESM4_ESM.xlsx, sheet "CATDS matrix" | column: PIK3CG

T1 sequence (P43250 whole entry): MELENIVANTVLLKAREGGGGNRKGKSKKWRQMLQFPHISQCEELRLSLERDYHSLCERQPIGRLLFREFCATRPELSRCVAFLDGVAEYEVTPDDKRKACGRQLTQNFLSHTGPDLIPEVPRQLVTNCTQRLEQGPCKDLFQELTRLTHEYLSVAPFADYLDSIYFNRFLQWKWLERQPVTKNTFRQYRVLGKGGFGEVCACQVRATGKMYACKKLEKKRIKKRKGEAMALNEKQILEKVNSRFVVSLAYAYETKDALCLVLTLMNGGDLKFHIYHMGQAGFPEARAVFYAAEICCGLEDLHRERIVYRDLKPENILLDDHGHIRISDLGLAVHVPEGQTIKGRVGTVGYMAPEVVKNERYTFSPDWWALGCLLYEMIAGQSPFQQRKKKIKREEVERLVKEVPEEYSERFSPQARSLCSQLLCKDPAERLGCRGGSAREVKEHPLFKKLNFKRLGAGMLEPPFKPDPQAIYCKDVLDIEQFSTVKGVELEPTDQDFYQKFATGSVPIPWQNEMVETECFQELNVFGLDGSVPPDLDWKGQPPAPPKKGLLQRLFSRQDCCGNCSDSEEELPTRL
T4 sequence (Q13557 whole entry): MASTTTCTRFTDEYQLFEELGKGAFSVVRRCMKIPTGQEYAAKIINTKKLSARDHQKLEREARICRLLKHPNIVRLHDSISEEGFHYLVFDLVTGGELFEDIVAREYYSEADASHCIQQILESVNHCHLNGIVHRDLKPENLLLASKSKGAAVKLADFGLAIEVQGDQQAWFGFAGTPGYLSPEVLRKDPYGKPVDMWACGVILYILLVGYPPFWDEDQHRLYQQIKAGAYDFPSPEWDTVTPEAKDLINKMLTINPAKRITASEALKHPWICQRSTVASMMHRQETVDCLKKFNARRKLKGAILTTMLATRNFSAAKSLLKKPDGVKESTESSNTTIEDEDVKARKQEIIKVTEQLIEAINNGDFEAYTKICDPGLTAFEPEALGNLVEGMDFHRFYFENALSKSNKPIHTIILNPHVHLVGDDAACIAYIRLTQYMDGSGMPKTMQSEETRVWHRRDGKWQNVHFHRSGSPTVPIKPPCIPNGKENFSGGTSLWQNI
T2 sequence (P31749 whole entry): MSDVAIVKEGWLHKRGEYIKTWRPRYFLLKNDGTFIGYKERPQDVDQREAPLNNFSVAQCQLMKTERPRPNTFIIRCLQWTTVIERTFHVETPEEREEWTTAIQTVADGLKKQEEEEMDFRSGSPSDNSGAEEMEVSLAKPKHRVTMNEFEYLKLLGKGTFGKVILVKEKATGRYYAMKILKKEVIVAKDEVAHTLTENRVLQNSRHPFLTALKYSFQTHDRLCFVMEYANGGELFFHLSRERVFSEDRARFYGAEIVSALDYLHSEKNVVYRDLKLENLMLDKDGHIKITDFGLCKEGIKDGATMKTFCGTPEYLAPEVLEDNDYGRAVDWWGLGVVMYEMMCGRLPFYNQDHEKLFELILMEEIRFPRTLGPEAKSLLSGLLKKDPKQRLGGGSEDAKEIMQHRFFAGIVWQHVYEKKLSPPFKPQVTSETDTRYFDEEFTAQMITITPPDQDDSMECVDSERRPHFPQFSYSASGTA
T6 sequence (P49674 whole entry): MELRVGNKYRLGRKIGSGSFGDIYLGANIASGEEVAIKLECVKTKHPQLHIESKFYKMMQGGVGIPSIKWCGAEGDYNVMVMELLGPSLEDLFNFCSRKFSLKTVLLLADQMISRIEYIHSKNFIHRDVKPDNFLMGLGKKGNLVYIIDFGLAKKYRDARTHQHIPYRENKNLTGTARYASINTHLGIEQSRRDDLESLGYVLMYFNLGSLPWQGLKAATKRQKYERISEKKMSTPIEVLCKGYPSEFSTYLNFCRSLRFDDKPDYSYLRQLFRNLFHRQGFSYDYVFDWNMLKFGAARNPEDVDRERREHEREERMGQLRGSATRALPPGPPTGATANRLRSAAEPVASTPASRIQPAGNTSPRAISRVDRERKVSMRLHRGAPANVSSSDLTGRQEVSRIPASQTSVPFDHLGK
T8 sequence (P48736 whole entry): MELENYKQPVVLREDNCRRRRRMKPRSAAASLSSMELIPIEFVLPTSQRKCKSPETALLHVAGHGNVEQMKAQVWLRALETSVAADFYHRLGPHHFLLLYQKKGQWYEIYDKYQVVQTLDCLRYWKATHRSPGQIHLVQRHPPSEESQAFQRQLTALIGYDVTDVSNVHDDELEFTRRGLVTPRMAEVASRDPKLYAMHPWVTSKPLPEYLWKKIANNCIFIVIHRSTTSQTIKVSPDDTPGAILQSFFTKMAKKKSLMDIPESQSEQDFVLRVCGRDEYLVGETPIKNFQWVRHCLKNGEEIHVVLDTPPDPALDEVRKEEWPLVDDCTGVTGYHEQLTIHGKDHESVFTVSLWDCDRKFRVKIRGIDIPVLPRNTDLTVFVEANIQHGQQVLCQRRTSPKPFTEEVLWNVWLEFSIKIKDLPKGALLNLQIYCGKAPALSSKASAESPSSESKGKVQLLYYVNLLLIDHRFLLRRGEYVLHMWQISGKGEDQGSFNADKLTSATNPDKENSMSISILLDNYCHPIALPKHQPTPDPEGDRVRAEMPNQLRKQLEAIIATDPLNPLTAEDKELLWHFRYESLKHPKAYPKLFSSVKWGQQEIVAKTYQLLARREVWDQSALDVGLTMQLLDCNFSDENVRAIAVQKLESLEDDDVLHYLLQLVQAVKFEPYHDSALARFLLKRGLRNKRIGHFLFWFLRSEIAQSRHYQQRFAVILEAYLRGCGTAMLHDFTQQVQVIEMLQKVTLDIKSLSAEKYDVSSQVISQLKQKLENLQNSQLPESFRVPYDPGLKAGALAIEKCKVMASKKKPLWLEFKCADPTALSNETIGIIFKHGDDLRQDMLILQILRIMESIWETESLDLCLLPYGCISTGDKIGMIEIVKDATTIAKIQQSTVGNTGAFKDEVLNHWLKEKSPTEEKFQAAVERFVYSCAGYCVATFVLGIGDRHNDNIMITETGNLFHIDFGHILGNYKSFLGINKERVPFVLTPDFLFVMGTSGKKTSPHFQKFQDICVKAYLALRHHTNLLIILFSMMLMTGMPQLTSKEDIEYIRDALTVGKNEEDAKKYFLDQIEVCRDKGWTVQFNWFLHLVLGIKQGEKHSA
T3 sequence (Q13554 whole entry): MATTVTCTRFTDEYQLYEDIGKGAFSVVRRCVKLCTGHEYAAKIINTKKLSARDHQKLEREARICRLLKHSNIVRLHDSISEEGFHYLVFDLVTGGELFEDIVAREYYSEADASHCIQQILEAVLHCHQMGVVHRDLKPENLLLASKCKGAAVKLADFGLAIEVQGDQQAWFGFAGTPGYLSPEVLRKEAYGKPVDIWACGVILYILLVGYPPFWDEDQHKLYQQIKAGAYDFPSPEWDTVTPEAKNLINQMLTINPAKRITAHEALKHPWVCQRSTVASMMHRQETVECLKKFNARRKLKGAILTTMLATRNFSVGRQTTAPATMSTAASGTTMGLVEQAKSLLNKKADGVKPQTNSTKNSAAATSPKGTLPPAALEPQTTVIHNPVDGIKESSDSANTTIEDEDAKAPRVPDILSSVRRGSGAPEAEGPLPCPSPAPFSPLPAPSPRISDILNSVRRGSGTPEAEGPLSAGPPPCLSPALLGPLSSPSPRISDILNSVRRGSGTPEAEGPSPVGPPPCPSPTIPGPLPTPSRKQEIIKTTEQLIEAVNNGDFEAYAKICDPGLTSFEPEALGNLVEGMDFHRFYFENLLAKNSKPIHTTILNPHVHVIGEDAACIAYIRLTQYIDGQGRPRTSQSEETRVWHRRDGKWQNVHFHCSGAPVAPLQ

SMILES	CATDS (GRK6)	CATDS (AKT1)	CATDS (ATR)	CATDS (CAMK2B)	CATDS (CAMK2D)	CATDS (CDC42)	CATDS (CDC42BPA)	CATDS (CDC42BPG)	CATDS (CDKL5)	CATDS (CLK3)	CATDS (CSNK1E)	CATDS (CSNK1G1)	CATDS (EIF2AK1)	CATDS (MAP2K2)	CATDS (MAP3K12)	CATDS (MAP4K5)	CATDS (MAPK10)	CATDS (PDXK)	CATDS (PIK3C2A)	CATDS (PIK3CG)	other results
Nc1ncnc2[nH]c(-c3ccccc3)nc12 [AH5015_KCGS]	0	0	0	0	0	0	0	0	0	0	0	0	0	0	0	0	0	0	0	0	CATDS (MAPK3): 0; CATDS (MST1R): 0
CCN1CCN(Cc2ccc(Nc3ncc(F)c(-c4cc(F)c5nc(C)n(C(C)C)c5c4)n3)nc2)CC1 [Abemaciclib]	0	0	0	0.1515	0.08654	0	0	0	0.6907	0		0	0	0	0	0	0	0	0	0	CATDS (MAPK3): 0; CATDS (MST1R): 0
CN(C)C/C=C/C(=O)Nc1cc2c(Nc3ccc(F)c(Cl)c3)ncnc2cc1O[C@H]1CCOC1 [Afatinib]	0	0	0	0	0	0			0		0							0	0	0	
CCc1cc2c(cc1N1CCC(N3CCOCC3)CC1)C(C)(C)c1[nH]c3cc(C#N)ccc3c1C2=O [Alectinib]	0	0	0	0	0	0	0	0	0	0	0	0	0	0	0	0	0	0	0	0	CATDS (MAPK3): 0; CATDS (MST1R): 0
N#CC1(c2ccc(NC(=O)c3cccnc3NCc3ccncc3)cc2)CCCC1 [Apatinib]	0	0	0	0	0	0	0	0	0	0	0	0	0	0	0	0	0	0	0	0	CATDS (MAPK3): 0; CATDS (MST1R): 0
